Data reported in patent EP0316592A2, “3'-Fluoro-2',3'-dideoxyuridine, and its therapeutic application” (Stichting REGA V.Z.W., priority 1987, dated 1989).
pEC50, pIC50, pKi: −log10 of the molar value. Read-outs that look alike come from different tables or passages of the source.

Tests used:
Molt/4F dThd kinase = biological target: T1, Molt/4F dThd kinase (Homo sapiens, UniProt P04183); assay: Inhibition of dThd kinase (Lineweaver-Burk); format: biochemical; conditions: for pKi: substrate (2-14C)dThd; for Type of inhibition: with respect to dThd
T1 construct: endogenous in cells; host or cells: Molt/4F cells (sonicated extract, 30-70% ammonium sulfate fraction, dialyzed)
T1 sequence (P04183 1-234): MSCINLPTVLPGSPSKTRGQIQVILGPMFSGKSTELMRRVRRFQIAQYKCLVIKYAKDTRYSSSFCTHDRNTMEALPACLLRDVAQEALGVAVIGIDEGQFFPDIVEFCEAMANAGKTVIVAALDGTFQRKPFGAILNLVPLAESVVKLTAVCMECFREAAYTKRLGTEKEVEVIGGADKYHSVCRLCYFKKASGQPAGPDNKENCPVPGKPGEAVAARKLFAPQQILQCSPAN
Procedure: ddUrd and the 3′-fluoro- and 3′-azido-substituted pyrimidine 2′,3′-dideoxynucleoside analogues were evaluated for their inhibitory effect against dThd and dCyd kinase.
dThd kinase and dCyd kinase were prepared from exponen tially growing Molt/4F cells, which were first washed (2x) with phosphate-buffered saline at 4° and then homogenized by sonication. The suspensions were clarified by centrifugation at 25,000-27,000 x g for 30 min. The 30-70% (NH₄)₂SO₄ precipitate of the supernatant was resuspended in buffer containing 10 uM potassium phosphate, pH 7.5, 10 mM β-mercaptoethanol and 0.1 M KCl, dialyzed against the same buffer, and used for the dThd kinase and the dCyd kinase assays. In these experiments, (2-¹⁴C)dThd and (U-¹⁴C)dCyd served as the radiolabelled substrates. The apparent Km and Ki values were derived from Lineweaver-Burk plots, using a linear regression analysis program.

MT4 cells = assay: Cytotoxicity for non-infected MT4 cells (viable cell count); conditions: 50% reduction of viable cells in non-infected MT4 cell cultures, 5 days
Procedure: Then 100 µl of the infected cell suspension was added to 100 µl of an appropriate dilution of test compound in 200 µ1 wells of a Flat Bottom Microtest III Plate (Falcon, Becton Dickinson, Oxnard, CA, USA) (i.e. 40 CCID₅₀ HIV/200 µ1 well/5 x 10⁴ cells), and further incubated at 37°C in a CO₂-controlled humidified atmosphere.

CEM = assay: Cytostatic effect (cell proliferation, Coulter count); format: cell-based; conditions: Homo sapiens, CCRF-CEM; cell number reduced by 50%, 68-72 hours; read-out: ID50 CEM
Procedure: (§1) Raji/0 cells and Raji/TK⁻ (a thymidine (dThd) kinasedeficient mutant cell line derived from wild-type Raji/0 cells, were grown in 75 cm² plastic tissue culture flasks (International Medical, Brussels, Belgium), in Eagle's minimal essential medium, supplemented with 10% (v/v) inactivated foetal calf serum (Gibco, Glasgow, Scotland, U.K.), 2 mM L-glutamine (Flow Laboratories, Irvine, Scotland, U.K.) and 1% THM (5 mM Tes, 7.5 mM Hepes and 5 mM (MOPS) buffer ([…]). The Raji/0 and Raji/TK⁻ cells were characterized according to J. Balzarini et al (Biochem. Pharmacol. 31, 1089-1095 (1982)). Molt/4F, CEM and H9 cells were grown in Eagle's minimal essential medium, supplemented with 10% (v/v) inactivated foetal calf serum and 2 mM L-glutamine. MT4 cells were cultivated in RPMI 1640 medium (Gibco) containing 20 mM Hepes buffer, 10% (v/v) inactivated foetal calf serum (Gibco) and 2 mM L-glutamine (Flow Laboratories).
(§2) All assays were performed in flat bottom Microtest III Plates (96 wells) (Falcon) as previously described by E. De Clercq et al (Mol. Pharmacol. 19, 321-330 (1981)). Briefly, the cells were suspended in growth medium and added to the microplate wells at a density of 7.5 x 10⁴ cells/well (200 µ1) in the presence of varying concentrations of the test compounds. The cells were then allowed to proliferate for 68-72 hours at 37°C in a humidified, CO₂-controlled atmosphere. At the end of the incubation period, the cells were counted with a Coulter Counter (Coulter Electronics Ltd., Harpenden Herts, U.K.). The 50% inhibitory dose (ID₅₀) was defined as the concentration of compound that reduced the number of cells by 50%.

MT4 = assay: as above; format: cell-based; conditions: Homo sapiens, cell number reduced by 50%, 68-72 hours, read-out: ID50 MT4
Procedure: as §1, §2

H9 = assay: as above; format: cell-based; conditions: Homo sapiens, cell number reduced by 50%, 68-72 hours, read-out: ID50 H9
Procedure: as §1, §2

Raji/0 = assay: as above; format: cell-based; conditions: Homo sapiens, cell number reduced by 50%, 68-72 hours, read-out: ID50 Raji/0
Procedure: as §1, §2

Molt/4F = assay: as above; format: cell-based; conditions: Homo sapiens, cell number reduced by 50%, 68-72 hours, read-out: ID50 Molt/4F
Procedure: as §1, §2

Raji/TK- = assay: as above; format: cell-based; conditions: Homo sapiens, cell number reduced by 50%, 68-72 hours, read-out: ID50 Raji/TK-
Procedure: as §1, §2

HIV = assay: Inhibition of HIV-induced cytopathogenicity in MT4 cells; format: cell-based; conditions: for pEC50: 50% reduction in the cytopathic effect of HIV for MT4 cells, 5 days, read-out: HIV-induced cyto-pathogenicity ED50; for HIV-induced cyto-pathogenicity S.I.: Selectivity index or ratio of CD50 to ED50, MT4 cells
Procedure: HTLV-IIIB (designated HIV) was derived from a pool of American patients with AIDS, and obtained from the supernatant of HIV-infected H9 cell cultures (see M. Popovic et al, Science 224, 497-500 (1984)).
FddUrd, the unsubstituted analogue and other 3′-fluoro- and 3′-azido-substituted analogues were evaluated for their inhibitory effects on HIV-induced cytopathogenicity in MT4 cells (Table 1, fig. 2).

[1] = tested on: Moloney murine sarcoma virus (MSV); assay: Inhibition of transformation of C3H cells by MSV; format: cell-based; conditions: for pEC50: Moloney murine sarcoma virus, 144 h, 50% reduction of transformation of C3H cells by MSV, 6 days, read-out: MSV-induced cyto-pathogenicity ED50; for MSV-induced cyto-pathogenicity S.I.: Selectivity index or ratio of CD50 to ED50, C3H cells
Procedure: Moloney murine sarcoma virus (MSV) was prepared from tumors induced by in vivo infection of 10 day-old NMRI mice according to the procedure described by De Clercq et al (Proc. Soc. Exp. Biol. Med. 137, 590-594 (1971)).
ddUrd and the substituted pymiridine 2′,3′-dideoxynucleoside analogues were examined for their inhibitory effect on the transformation of mouse embryo C3H fibroblasts by Moloney murine sarcoma virus (MSV).
C3H cells were seeded at 20,000 cells per ml into wells of Costar Tissue Culture Cluster plates (48 wells per plate) and grown to confluency. Cell cultures were then infected by 150 foci-forming units of MSV during 90 min, whereafter the culture medium was replaced by 1 ml fresh medium containing different concentrations of the test compound. After 6 days, the transformation of the cell cultures was examined microscopically.

[2] = Human immunodeficiency virus 1, MT4, 120 h

SMILES	pKi (Molt/4F dThd kinase; dThd kinase)	Type of inhibition (Molt/4F dThd kinase; dThd kinase)	Ki/Km (Molt/4F dThd kinase; dThd kinase, Km 2.5 to 6.6 µM)	HIV-induced cyto-pathogenicity CD50 (MT4 cells) [µM]	pIC50 (CEM)	pIC50 (MT4)	pIC50 (H9)	pIC50 (Raji/0)	pIC50 (Molt/4F)	pIC50 (Raji/TK-)	pEC50 (HIV)	pEC50 (HIV; [2])	HIV-induced cyto-pathogenicity S.I. (HIV)	pEC50 [1]	Ki/Km (Molt/4F dThd kinase)	fold more effective against HIV replication than the parent compound ddUrd (HIV) [fold]	pEC50 (HIV; Human immunodeficiency virus 1, 120 h)	MSV-induced cyto-pathogenicity S.I. [1]
CCc1cn([C@H]2C[C@H](N=[N+]=[N-])[C@@H](CO)O2)c(=O)[nH]c1=O [AzddEtUrd, 3′-azido-2′,3′-dideoxy-5-ethyluridine]	3.76	competitive	28	418	< 3.00	3.80	< 3.00	< 3.00	< 3.00	< 3.00	4.19	< 4.19	6.5	< 3.70	–	–	–	–
[N-]=[N+]=N[C@H]1C[C@H](n2ccc(=O)[nH]c2=O)O[C@@H]1CO [AzddUrd, 3′-azido-2′,3′-dideoxyuridine]	3.65	competitive	–	244	3.37	3.44	< 3.00	≤ 3.00	< 3.00	< 3.00	–	–	677	4.82	71	600	6.44	>27
Nc1ccn([C@H]2C[C@H](F)[C@@H](CO)O2)c(=O)n1 [FddCyd, 3′-fluoro-2′,3′-dideoxycytidine]	–	–	–	26	5.15	< 3.00	< 3.00	4.02	4.62	3.93	–	4.80	1.6	3.55	–	–	–	> 1.2
CCc1cn([C@H]2C[C@H](F)[C@@H](CO)O2)c(=O)[nH]c1=O [FddEtUrd, 3′-fluoro-2′,3′-dideoxy-5-ethyluridine]	3.58	competitive	72	>625	< 3.00	< 3.00	< 3.00	< 3.00	< 3.00	< 3.00	3.48	–	>1.9	< 3.40	–	–	–	–
